Test results taken from patent US20200268690A1, “TOPICAL COMPOSITIONS” (Atossa Therapeutics, Inc., priority 2017, published 2020).
Where two headings read alike, the source gives them in different places.

What was measured:
[1] = Accelerated stability of (Z)-endoxifen free base in polar organic solvents in the absence and presence of human cadaver skin; assay type: physicochemical; conditions: for % Potency: relative to initiation of study; for potency and stability in presence of skin compared with absence of skin: in the solvents of Table 3, 45° C., after 2 days
Method: (§1) HPLC-UV. Briefly, (E)- and (Z)-endoxifen were analyzed by High Performance Liquid Chromatography, HPLC (instrument: Agilent 1100) using a UV detector (Agilent). Chromatographic resolution was obtained using a Luna Phenyl Hexyl Column ([…]×150 mm) at a column temperature of 40° C. Samples were injected in an injection volume of 10 ul and run at a flow rate of 1.0 ml/min. The mobile phase system used consisted of: A) water with 10 mM ammonium formate (HCOONH4) with 0.03% formic acid and B) Methanol with 10 mM ammonium formate (HCOONH4).
The stability studies of endoxifen free base in various pure polar organic solvents/MPEs were performed as described below. Accelerated stability studies of (Z)-endoxifen free base in solvents/MPEs were performed over a course of 2 days at 45° C. in both the presence and the absence of human cadaver skin to assess the degree to which the (Z)-endoxifen conversion to (E)-endoxifen by isomerization and or chemical degradation of the endoxifen is accelerated upon contact with skin and skin components. (Z)-Endoxifen solutions at […] of saturation concentrations were prepared in 1 ml batches in solvents as listed below in the Table 3. The potencies of (Z)-endoxifen and (E)-endoxifen were determined by HPLC-UV analysis as described above. Potency results are shown compared with potencies measured when the sample were stored at the initiation of stability study.

[2] = cited from earlier work
[3] = Solubility of endoxifen free base in polar organic solvents (HPLC-UV); assay type: physicochemical; conditions: for Z/E Ratio: room temperature
Method: (Z)-endoxifen free base was synthesized as described above in Example 1. (Z)-endoxifen was solubilized in various solvents as provided in Table 1, and tested for physical and chemical stability in solution. The solutions were prepared in ˜1 ml batches typically for solubility and stability testing. The mixture was stirred overnight on a rotisserie at room temperature. The next, day, the suspension was filtered using a syringe filter (0.2 um pore size GHP membrane). The filtrated solution was then analyzed for the concentration of (Z)-endoxifen and (E)-endoxifen as using a validated HPLC-UV method as described below.
as §1
UV detection of (E)-endoxifen and (Z)-endoxifen isomers was performed at 243 nm with a run time of 30 minutes. Retention times for (E)-endoxifen and (Z)-endoxifen were 15.14 m and 16.25 m respectively. […] The solubility of (Z)-endoxifen ranged from about 1 mg/g of solution to over 30 mg/g of solution.

patients = conditions: oral tamoxifen; cited from earlier work
[4] = in Diethyl Sebacate, 45° C. + skin, 2 days
[5] = in Diethyl Sebacate, 45° C., 2 days
[6] = in Diethylene glycol monoethyl ether, 45° C. + skin, 2 days
[7] = in Diethylene glycol monoethyl ether, 45° C., 2 days
[8] = in Diisopropyl Adipate, 45° C. + skin, 2 days
[9] = in Diisopropyl Adipate, 45° C., 2 days
[10] = in Dimethyl Isosorbide, 45° C. + skin, 2 days
[11] = in Dimethyl Isosorbide, 45° C., 2 days
[12] = in Dimethyl Sulfoxide, 45° C. + skin, 2 days
[13] = in Dimethyl Sulfoxide, 45° C., 2 days
[14] = in Dipropylene Glycol, 45° C. + skin, 2 days
[15] = in Dipropylene Glycol, 45° C., 2 days
[16] = in Isopropanol, 45° C. + skin, 2 days
[17] = in Isopropyl Myristate, 45° C. + skin, 2 days
[18] = in Isopropyl Myristate, 45° C., 2 days
[19] = in PEG 300, 45° C. + skin, 2 days

SMILES	% Potency [1, 4] [%]	% Potency [1, 5] [%]	% Potency [1, 6] [%]	% Potency [1, 7] [%]	% Potency [1, 8] [%]	% Potency [1, 9] [%]	% Potency [1, 10] [%]	% Potency [1, 11] [%]	% Potency [1, 12] [%]	% Potency [1, 13] [%]	% Potency [1, 14] [%]	% Potency [1, 15] [%]	% Potency [1, 16] [%]	% Potency ([1]; in Isopropanol, 45° C., 2 days) [%]	% Potency [1, 17] [%]	% Potency [1, 18] [%]	% Potency [1, 19] [%]	% Potency ([1]; in PEG 300, 45° C., 2 days) [%]	potency and stability in presence of skin compared with absence of skin [1]	further results
CC/C(=C(/c1ccc(O)cc1)c1ccc(OCCNC)cc1)c1ccccc1 [(E)-endoxifen free base]	99	101	98	100	101	100	16	15	101	101	95	95	106	106	68	67	92	91	maintained potency and stability	
CC/C(=C(\c1ccc(O)cc1)c1ccc(OCCNC)cc1)c1ccccc1.Cl [(Z)-endoxifen HCl]																				t90 ([2]; 45° C.): 9 days; (Z)-endoxifen HCl remaining after degradation ([2]; aqueous medium, 45° C., day 15, from 98%): 75%; t90 ([2]; room temperature): 149 days
CC/C(=C(\c1ccc(O)cc1)c1ccc(OCCNC)cc1)c1ccccc1 [(Z)-endoxifen free base, (Z)-4-(1-(4-(2-(methylamino)ethoxy)phenyl)-2-phenylbut-1-enyl)phenol]	94	100	98	100	99	99	17	16	101	102	94	93	105	105	63	65	92	91	maintained potency and stability	
CC/C(=C(\c1ccc(O)cc1)c1ccc(OCCNC)cc1)c1ccccc1 [Endoxifen free base, (E/Z)-4-[1-[4-[2-(Methylamino)ethoxy]phenyl]-2-phenyl-1-buten-1-yl]-phenol]																				solubility (in words) ([3]; in polar organic solvents/MPEs such as DMSO, ethanol, diethylene monoethyl ether, and oleic acid): significantly soluble; Z/E Ratio ([3]; saturated solution in Capric Trigylceride (Solvent No. 15)): 0.63; Z/E Ratio ([3]; saturated solution in Diethyl Sebacate (Solvent No. 2)): 1.7; Z/E Ratio ([3]; saturated solution in Diethylene glycol monoethyl ether (Solvent No. 10)): 1.89; Z/E Ratio ([3]; saturated solution in Diisopropyl Adipate (Solvent No. 3)): 1.87; Z/E Ratio ([3]; saturated solution in Dimethyl Isosorbide (Solvent No. 4)): 1.82; Z/E Ratio ([3]; saturated solution in Dimethyl Sulfoxide (Solvent No. 1)): 1.87; Z/E Ratio ([3]; saturated solution in Dipropylene Glycol (Solvent No. 5)): 1.82; Z/E Ratio ([3]; saturated solution in Ethanol (Solvent No. 6)): 1.72; Z/E Ratio ([3]; saturated solution in Isopropanol (Solvent No. 7)): 1.88; Z/E Ratio ([3]; saturated solution in Isopropyl Myristate (Solvent No. 12)): 1.09; Z/E Ratio ([3]; saturated solution in Oleic Acid (Solvent No. 14)): 1.02; Z/E Ratio ([3]; saturated solution in PEG300 (Solvent No. 8)): 1.77; Z/E Ratio ([3]; saturated solution in PEG 400 (Solvent No. 11)): 1.78; Z/E Ratio ([3]; saturated solution in Propylene Glycol (Solvent No. 9)): 1.60; Z/E Ratio ([3]; saturated solution in Soybean Oil (Solvent No. 13)): 0.76; stability (in words) ([1]; dissolved in dimethyl isosorbide and isopropyl myristate, 45° C., 2 days): poor stability
CC/C(=C(\c1ccccc1)c1ccc(OCCN(C)C)cc1)c1ccccc1 [tamoxifen, (Z)-2-[4-(1,2-diphenyl-1-butenyl)phenoxy]-N,N-dimethylethanamine]																				patients with elevated liver function tests, especially SGOT/AST (patients): about 5%
